Substitutions are numbered along the chain they refer to.
Tests used:
[1] = target: T1, Androgen receptor H875Y (Homo sapiens, UniProt P10275, H875Y); assay: Degradation of overexpressed Androgen Receptor in A549 cells (HiBiT), H875Y; format: cell-based; details: A549 cells overexpressing AR H875Y, cycloheximide, 24 hours
T1 construct: expressed in transfected cells; host or cells: A549, transduced, puromycin selected
T1 sequence (P10275 1-920 H875Y): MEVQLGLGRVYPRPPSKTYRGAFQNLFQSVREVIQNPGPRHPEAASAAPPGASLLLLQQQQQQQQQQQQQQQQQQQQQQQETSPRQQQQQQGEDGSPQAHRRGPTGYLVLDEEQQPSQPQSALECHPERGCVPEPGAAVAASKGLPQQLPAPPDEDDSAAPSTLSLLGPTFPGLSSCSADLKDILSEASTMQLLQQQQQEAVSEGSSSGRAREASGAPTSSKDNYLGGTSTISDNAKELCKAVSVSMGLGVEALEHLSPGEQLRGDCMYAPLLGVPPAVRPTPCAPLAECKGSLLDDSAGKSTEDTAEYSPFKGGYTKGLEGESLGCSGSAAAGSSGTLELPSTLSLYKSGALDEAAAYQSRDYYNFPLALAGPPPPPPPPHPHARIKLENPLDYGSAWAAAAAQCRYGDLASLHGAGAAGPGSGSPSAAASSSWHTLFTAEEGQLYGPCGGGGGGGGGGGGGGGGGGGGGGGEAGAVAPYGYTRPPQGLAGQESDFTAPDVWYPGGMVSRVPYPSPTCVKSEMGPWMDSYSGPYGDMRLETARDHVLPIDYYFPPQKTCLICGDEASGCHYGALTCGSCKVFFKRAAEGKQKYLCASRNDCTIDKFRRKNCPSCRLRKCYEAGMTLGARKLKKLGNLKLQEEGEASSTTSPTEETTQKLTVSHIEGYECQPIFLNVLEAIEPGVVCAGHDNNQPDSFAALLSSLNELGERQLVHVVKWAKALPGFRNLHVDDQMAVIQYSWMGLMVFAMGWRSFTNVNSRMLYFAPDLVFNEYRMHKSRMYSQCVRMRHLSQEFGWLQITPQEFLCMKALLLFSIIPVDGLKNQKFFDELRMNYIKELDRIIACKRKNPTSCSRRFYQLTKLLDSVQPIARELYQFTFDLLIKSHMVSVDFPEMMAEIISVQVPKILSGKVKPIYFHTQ
Protocol: (§1) A549 cells were transduced to express wild type androgen receptor and Androgen receptor containing the following mutations (L702H, H875Y W742C W742L F877L, T878A and T878A/H875Y) with HiBiT tags. Transduced cells following puromycin selection were maintained in a humidified incubator (at 37° C. and 5% CO2 in the DMEM medium supplemented with 1% (v/v) Pen/Strep, 1% (v/v) Glutamax and 10% (v/v) FBS. A549 cells expressing each AR construct were detached from plate and counted. Cell suspensions at density 0.2 million per mL were prepared. Cell suspension was supplemented with 100 μg/mL of cycloheximide to block protein synthesis. Cells were preincubated with cycloheximide for 1 hr before seeding. Cells were seeded onto 384-well plate at density of 5,000 in 25 μL per well. A two fold serial dilution of test compounds, starting from 1 μM (row A) in 2-fold serial dilution series across the column using Tecan D300e dispenser. […]
(§2) Nano-Glo HiBiT Lytic reagent was prepared by adding LgBiT protein and Nano-Glo® substrate to lytic buffer pre-equilibrated at room temperature following manufacturer protocol (https://www.promega.co.uk/resources/protocols/technical-manuals/101/nanoglo-luciferase-assay-system-protocol). […] The plates were then centrifuged (100×G, 1 min) and incubated on shaker for 10 mins before taking readings on Pherastar Luminescence microplate reader. […]

[2] = target: T2, Androgen receptor W742C (Homo sapiens, UniProt P10275, W742C); assay: Degradation of overexpressed Androgen Receptor in A549 cells (HiBiT), W742C; format: cell-based; details: A549 cells overexpressing AR W742C, cycloheximide, 24 hours
T2 construct: expressed in transfected cells; host or cells: A549, transduced, puromycin selected
T2 sequence (P10275 1-920 W742C): T1 sequence (P10275 1-920 H875Y) with W742C, Y875H
Protocol: as §1, §2

Summary pXC50 [1]: 8.83
Summary pXC50 [2]: 8.57
SMILES: COc1cc(O[C@H]2C(C)(C)[C@H](NC(=O)c3ccc(N4CCC(CN5CCC(n6ncc7c(N8CCC(=O)NC8=O)nccc76)CC5)CC4)c(F)c3)C2(C)C)ccc1C#N [Example 20, N-((1r,3r)-3-(4-Cyano-3-methoxyphenoxy)-2,2,4,4-tetramethylcyclobutyl)-4-(4-((4-(4-(2,4-dioxotetrahydropyrimidin-1(2H)-yl)-1H-pyrazolo[4,3-c]pyridin-1-yl)piperidin-1-yl)methyl)piperidin-1-yl)-3-fluorobenzamide]
